Laboratory results: patent US6852744B2, “Pyrrolidine derivatives and their use as chymase inhibitor” (Dainippon Pharmaceutical Co., Ltd., priority 2000, dated 2005)
Where a chain is given by its changes, count along the chain named. Where a name gives a salt, the structure may show the parent alone.

Columns and labels:
[1] = target: T1, monkey chymase (Macaca fascicularis, UniProt P56435); experiment: Monkey chymase inhibitory activity (in vitro, angiotensin I substrate); assay type: biochemical; settings: for IC50: chymase purified from monkey cheek pouch and stomach, substrate angiotensin I, 37° C., read-out: Monkey Chymase Inhibition (IC50:nM)
T1 construct: chymase was extracted from homogenized monkey cheek pouch and stomach; from tissue; host or cells: monkey cheek pouch and stomach
T1 sequence (P56435 22-247): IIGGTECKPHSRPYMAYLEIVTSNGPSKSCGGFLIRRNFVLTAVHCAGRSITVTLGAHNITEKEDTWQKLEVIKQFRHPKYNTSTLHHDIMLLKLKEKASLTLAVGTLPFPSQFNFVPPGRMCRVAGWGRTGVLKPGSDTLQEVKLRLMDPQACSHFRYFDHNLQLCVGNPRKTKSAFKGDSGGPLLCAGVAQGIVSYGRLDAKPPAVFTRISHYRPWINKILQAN
Experimental: (§1) The inhibitory activities of the compounds on monkey chymase and human chymase were tested in vitro. The test compounds are as shown by Compound Nos. in Tables 13 and 14.
Preparation of Monkey Chymase
Chymase was purified from monkey cheek pouch and stomach in the following manner.
Briefly, chymase was extracted from homogenized monkey cheek pouch and stomach with 0.01 mol/1000 ml sodium phosphate buffer, pH 7.4, containing 2 mol/1000 ml KCl and 0.1% Nonidet P-40 (Amresco Inc.). The solution containing chymase was applied to a heparin actigel column, and the chymase-rich fractions were collected.
(§2) Measurement of Chymase Inhibitory Activity (In Vitro Assay)
(§3) Briefly, the purified monkey or human chymase was diluted to an appropriate concentration with 0.01 mol/1000 ml sodium phosphate buffer, pH 7.4, containing 2 mol/1000 ml KCl and 0.1% Nonidet P-40 and used as enzyme solution. Angiotensin I (Peptide Institute Inc.) was diluted with water to 5 mg/ml and used as substrate solution. Test compounds were serially diluted with 10% DMSO. […] After pre-incubation of the mixture at 37° C., 20 μl of the substrate solution was added to the enzyme-test compound mixture and the new mixture was incubated at 37° C. Fifty μl of 30% trichloroacetic acid solution was finally added to stop the enzymatic reaction.
(§4) The amount of L-His-L-Leu was measured as angiotensin II produced by the enzymatic reaction. Briefly, 10 μl of the reaction mixture and 10 μl of 1% orthophthalaldehyde solution dissolved in methanol were mixed with 100 μl of 2 mol/1000 ml NaOH and kept at room temperature. The reaction was then stopped by adding 10 μl of 6 mol/1000 ml HCl.

[2] = target: T2, human chymase (Homo sapiens, UniProt P23946); experiment: Human chymase inhibitory activity (in vitro, angiotensin I substrate); assay type: biochemical; settings: for IC50: recombinant human chymase (COS7 cells), substrate angiotensin I, 37° C., read-out: Human Chymase Inhibition (IC50:nM)
T2 construct: made in house; host or cells: COS7 cells (transient transfection)
T2 sequence (P23946 22-247): T1 sequence (P56435 22-247) with S29F, V44A, K63E, Y159D, L201S, K221Q
Experimental: as §1
Preparation of Human Chymase
Human chymase was produced in mammalian cells using a recombinant DNA technique.
Construction of a human prochymase expression plasmid was performed in the following manner. Briefly, single stranded cDNA was synthesized from human heart mRNA (Clontech Laboratories, Inc.). Polymerase chain reaction amplification was carried out using the cDNA as a template and appropriate pairs of primers. The primer sequences were determined based on the human preprochymase. The amplified product was cloned into the plasmid pUC18, and then recloned into the plasmid pBluescript II KS(+) (Stratagene). Finally, the DNA fragment carrying the entire protein-coding sequences of the human preprochymase was inserted to a transient expression vector by the usual method to yield the human prochymase expression plasmid.
Transfection of COS7 cells with the human prochymase expression plasmid was carried out using the FuGene™ 6 transfection reagent (Boehringer Mannheim). About 7 hours after exposure to DNA, the culture medium was changed to a serum-free one. The culture supernatant was collected after 2 days culture.
Human prochymase was purified from the culture supernatant using a heparin actigel column as described above in the preparation of monkey chymase.
In order to produce active chymase, the human prochymase was incubated with dipeptidylpeptidase I (Sigma). The resultant active human chymase was purified using a heparin actigel column as described above. The active human chymase was eluted with 0.01 mol/1000 ml sodium phosphate buffer pH 7.4 containing 2 mol/1000 ml NaCl.
as §2
as §3, with “The chymase inhibitory activities of compounds I-A of this invention were measured according to the following method. Briefly,” for “Briefly,”
as §4, with “HCl. Finally, the fluorescence induced by the reaction was measured using in a photometer with an excitation wavelength of 355 nm and an emission wavelength of 460 nm. Chymase inhibitory activities of test compounds were expressed as 50% inhibitory concentration (IC50).” for “HCl.”

[3] = in vivo; settings: male, ddy, mouse, po
Experimental: Plasma levels of test compounds were measured in the following manner.
Briefly, test compounds were dissolved in DMSO to 100 mg/ml, and suspended with 0.5% tragacanth solution 1 mg/ml. Male ddy mice, weighing about 30 g, were orally administered the test compound solution. After one hour, blood was collected from the heart under anesthesia with Nembutal (Dainippon Pharmaceutical Co., Ltd.) and centrifuged to obtain plasma. The collected plasma (125 μl) was mixed with 10% DMSO (120 μl) and ethyl acetate (720 μl). After centrifugation, the ethyl acetate layer was collected and evaporated. The residue was dissolved and diluted serially as test samples with 10% DMSO. Chymase inhibitory activities of test samples were measured in the same manner as described in Experiment 1. In this chymase inhibitory assay of test samples, 0.1 mol/1000 ml sodium phosphate buffer, pH 7.4 contained 5 mmol/1000 ml ethylenediaminetetraacetic acid (EDTA) disodium salt, 0.77 mmol/1000 ml diisopropyl fluorophosphate (DFP) and 8 mmol/1000 ml dipyridyl. Plasma concentrations of test compounds were calculated from calibration curves.
The calibration curve was obtained in the following manner. Test compounds (0.06-60 ng) were added into the control plasma. The control plasma was treated in the same manner as for test samples. Finally, chymase inhibitory activities of the 10% DMSO-dissolved residues were measured and plotted against the amount of test compounds.

Structure (SMILES) | IC50 [1] [nM] | IC50 [2] [nM] | concentration at 1 h [3] [ng/mL] | inhibitory activity on monkey chymase (in words) ([1]; summary of Table 13) | inhibitory activity on human chymase (in words) ([2]; summary of Table 14)
Cc1noc(C)c1C(=O)N[C@H](C(=O)N1CCC[C@H]1C(=O)N[C@@H](Cc1ccc2ccccc2c1)C(=O)C(F)(F)F)C(C)C [I-A-2, N-[(1S)-2-((2S)-2-{N-[(1S)-3,3,3-trifluoro-1-(2-naphthylmethyl)-2-oxopropyl]carbamoyl}pyrrolidinyl)-1-(methylethyl)-2-oxoethyl]-(3,5-dimethylisoxazol-4-yl)carboxamide] | 54 | 83 | 2700 | – | –
CC[C@H](NC(=O)c1c(C)noc1C)C(=O)N1CCC[C@H]1C(=O)N[C@@H](Cc1csc2ccccc12)C(=O)C(F)(F)F [I-A-3, N-[(1S)-2-((2S)-2-{N-[(1S)-1-(benzo[b]thiophen-3-ylmethyl)-3,3,3-trifluoro-2-oxopropyl]carbamoyl}pyrrolidinyl)-1-ethyl-2-oxoethyl](3,5-dimethylisoxazol-4-yl)carboxamide] | 9.3 | 50 | 320 | – | –
CC[C@@H](C)[C@H](NC(=O)c1c(C)noc1C)C(=O)N1CCC[C@H]1C(=O)N[C@@H](Cc1csc2ccccc12)C(=O)C(F)(F)F [I-A-4, N-[1-((1R)-1-methylpropyl)(1S)-2-((2S)-2-{N-[(1S)-1-(benzo[b]thiophen-3-ylmethyl)-3,3,3-trifluoro-2-oxopropyl]carbamoyl}pyrrolidinyl)-2-oxoethyl](3,5-dimethylisoxazol-4-yl)carboxamide] | 12 | 57 | 940 | – | –
Cc1noc(C)c1C(=O)N[C@@H](C)C(=O)N1CCC[C@H]1C(=O)N[C@@H](Cc1csc2ccccc12)C(=O)C(F)(F)F [I-A-5, N-[(1S)-2-((2S)-2-{N-[(1S)-1-(benzo[b]thiophen-3-ylmethyl)-3,3,3-trifluoro-2-oxopropyl]carbamoyl}pyrrolidinyl)-1-methyl-2-oxoethyl](3,5-dimethylisoxazol-4-yl)carboxamide] | 16 | 83 | 630 | – | –
CC(C)[C@H](NC(=O)c1ccc2c(c1)no[n+]2[O-])C(=O)N1CCC[C@H]1C(=O)NC(Cc1csc2ccccc12)C(=O)C(F)(F)F (stereo partly shown) [I-A-52] | 31 | 57 | – | – | –
CC(C)[C@H](NC(=O)c1ccc2c(c1)no[n+]2[O-])C(=O)N1CCC[C@H]1C(=O)NC(Cc1ccc2ccccc2c1)C(=O)C(F)(F)F (stereo partly shown) [I-A-53] | 31 | 69 | – | – | –
CC(C)[C@H](NC(=O)c1ccc2c(c1)no[n+]2[O-])C(=O)N1CCC[C@H]1C(=O)NC(Cc1ccccc1)C(=O)C(F)(F)F (stereo partly shown) [I-A-54] | 42 | 90 | – | – | –
CC(C)[C@H](NC(=O)c1ccoc1)C(=O)N1CCC[C@H]1C(=O)NC(Cc1ccc2ccccc2c1)C(=O)C(F)(F)F (stereo partly shown) [I-A-63] | 150 | 92 | – | – | –
CC(C)[C@H](NC(=O)c1ccoc1)C(=O)N1CCC[C@H]1C(=O)NC(Cc1csc2ccccc12)C(=O)C(F)(F)F (stereo partly shown) [I-A-64] | 73 | 96 | – | – | –
CC(C)[C@H](NC(=O)Cn1ccc(=O)n(CC(=O)OC(C)(C)C)c1=O)C(=O)N1CCC[C@H]1C(=O)NC(Cc1ccc(Cl)cc1)C(=O)C(F)(F)F (stereo partly shown) [I-A-90] | 280 | – | – | – | –
O=C(O)Cn1c(=O)ccn(CC(=O)N[C@@H](CC2CCCCC2)C(=O)N2CCC[C@H]2C(=O)NC(Cc2ccccc2)C(=O)C(F)(F)F)c1=O (stereo partly shown) [I-A-91] | 150 | – | – | – | –
CC(C)(C)OC(=O)Cn1c(=O)ccn(CC(=O)N[C@@H](CC2CCCCC2)C(=O)N2CCC[C@H]2C(=O)NC(Cc2ccccc2)C(=O)C(F)(F)F)c1=O (stereo partly shown) [I-A-92] | 860 | – | – | – | –
Cc1cn(CC(=O)N[C@H](C(=O)N2CCC[C@H]2C(=O)NC(Cc2cc3ccccc3s2)C(=O)C(F)(F)F)C(C)C)c(=O)n(Cc2ccccc2)c1=O (stereo partly shown) [I-A-93] | 200 | – | – | – | –
Cc1nsc(C)c1C(=O)N[C@H](C(=O)N1CCC[C@H]1C(=O)NC(Cc1cc2ccccc2s1)C(=O)C(F)(F)F)C(C)C (stereo partly shown) [I-A-94] | 15 | – | – | – | –
CC(C)[C@H](NC(=O)c1ccc2nonc2c1)C(=O)N1CCC[C@H]1C(=O)NC(Cc1cc2ccccc2s1)C(=O)C(F)(F)F (stereo partly shown) [I-A-95] | 47 | 95 | – | – | –
Cc1nnsc1C(=O)N[C@H](C(=O)N1CCC[C@H]1C(=O)NC(Cc1ccccc1)C(=O)C(F)(F)F)C(C)C (stereo partly shown) [I-A-96] | 50 | 77 | – | – | –
Cc1nnsc1C(=O)N[C@H](C(=O)N1CCC[C@H]1C(=O)NC(Cc1cc2ccccc2s1)C(=O)C(F)(F)F)C(C)C (stereo partly shown) [I-A-97] | 59 | 75 | – | – | –
Cc1noc(C)c1C(=O)N[C@H](C(=O)N1CCC[C@H]1C(=O)NC(Cc1cc2ccccc2s1)C(=O)C(F)(F)F)C(C)C (stereo partly shown) [I-A-98] | 63 | – | – | – | –
Cc1snnc1C(=O)N[C@H](C(=O)N1CCC[C@H]1C(=O)NC(Cc1cc2ccccc2s1)C(=O)C(F)(F)F)C(C)C (stereo partly shown) [I-A-99] | 83 | – | – | – | –
Cc1nsc(C(=O)N[C@H](C(=O)N2CCC[C@H]2C(=O)NC(Cc2cc3ccccc3s2)C(=O)C(F)(F)F)C(C)C)n1 (stereo partly shown) [I-A-100] | 260 | – | – | – | –
CNC1CCN(C(=O)N[C@H](C(=O)N2CCC[C@H]2C(=O)N[C@@H](Cc2ccccc2)C(=O)C(F)(F)F)C(C)C)CC1 [Reference compound (A), [(2S)-1-((2S)-3-methyl-2-{[4-(methylamino)piperidyl]carbonylamino}butanoyl)pyrrolidin-2-yl]-N-[(1S)-3,3,3-trifluoro-2-oxo-1-benzylpropyl]carboxamide hydrochloride, reference compound] | 1600 | 1200 | – | very low chymase inhibitory activity | very low chymase inhibitory activity
